Assay results from patent US9739767B2, “Method of screening for plant defense activators, plant defense activators, and method of enhancing immune response” (TOKYO UNIVERSITY OF SCIENCE FOUNDATION, priority 2010, dated 2017).

B1: cryptogein (protein, UniProt P15570 21-118, looked up)
Beta-elicitin cryptogein: TACTATQQTAAYKTLVSILSDASFNQCSTDSGYSMLTAKALPTTAQYKLMCASTACNTMIKKIVTLNPPNCDLTVPTSGLVLNVYSYANGFSNKCSSL
notes: an elicitin derived from oomycete, Phytophthora cryptogea; trigger material (elicitor)

Columns and labels:
OsWRKY45 = conditions: rice; cited from earlier work
[1] = test system: salicylic acid-dependent defense pathway and jasmonic acid-dependent defense pathway; experiment: Defense gene expression (PR1, PDF1.2) in Arabidopsis seedlings, real-time RT-PCR; type: in vivo, Arabidopsis thaliana; conditions: Arabidopsis seedlings on MS plates containing compound for 3 or 6 days (FIG. 2)
Protocol: (§1) Total RNA was isolated from plant cells using Trizol (Invitrogen, Carlsbad, Calif., USA) reagent in accordance with the manufacturer's protocol and quantified using a spectrophotometer. First-strand cDNA was synthesized from 3 μg total RNA with an oligo-dT primer and reverse transcriptase.
(§2) Real-time PCR was performed using an ABI PRISM 7300 sequence detection system (Applied Biosystems, Foster City, Calif., USA) with SYBR Green real-time PCR Master Mix (TOYOBO, Osaka, Japan) and the gene-specific primers. PCR amplification was performed with an initial denaturation at 95° C. for 10 min followed by 40 cycles of incubations at 95° C. for 15 s, 60° C. for 15 s, and 72° C. for 45 s. Relative mRNA abundances were calculated using the comparative Ct method. Actin or tubulin was used as an internal control. The following primers were used in the experiment.
Arabidopsis seedlings were grown on MS plate for 12 days and then the seedlings were transferred to MS plates containing chemical compounds. After grown for 3 or 6 days, the samples for RNA extraction were collected.

[2] = test system: Pseudomonas syringae pv tomato (Pst) DC3000; experiment: Pathogen infection assay in Arabidopsis thaliana (Col-0); type: in vivo; conditions: Arabidopsis thaliana (Col-0) irrigated with compound for 5 days, dip inoculation with Pst DC3000, 3 days (FIG. 3)
Protocol: Arabidopsis thaliana (Col-0) were grown in sterilized potting soil (Kureha) in plastic pots (5 cm×5 cm×5 cm) inside a growth chamber under a 16 h-8 h light-dark regimen at 22° C. with 60% humidity. After grown for 3 weeks, plants were irrigated with chemical compounds for 5 days.
Pseudomonas syringae pv tomato (Pst) DC3000 was cultured in nutrient broth medium (Eiken Chemical) for 24 h at 28° C., and a bacterial suspension was prepared in 10 mM MgCl2 (2×10^5 colony-forming units per mL). Challenge inoculation was performed by dipping the plants in bacterial solution. After incubation for 3 days at 22° C., the leaves were harvested from the inoculated plants. Three to four leaves from different plants were combined, weighed, and then homogenized in 10 mM MgCl2; the homogenate was then plated on nutrient broth agar containing rifampicin (50 mg/L) at appropriate dilutions. After incubation for 2 days at 28° C., the number of rifampicin-resistant bacterial colonies was counted. More than six homogenized samples were prepared for each experiment.

[3] = test system: innate immunity in tobacco plant; experiment: Innate immunity gene expression (PR1a, PR1b) in tobacco seedlings after cryptogein; type: in vivo, Nicotiana tabacum; conditions: 6 days on compound, cryptogein 2000 nM, 0, 1 and 24 h (FIG. 4)
Protocol: as §1, §2
Tobacco seedlings were grown on MS plate for 7 days and then the seedlings were transferred to MS plates containing chemical compounds. After grown for 6 days, cryptogein (2000 nM) was added to the medium and the samples for RNA extraction were collected at the indicated time (0, 1 and 24 h).

innate immunity in rice = experiment: Innate immunity gene expression (PBZ1, WRKY45) in rice seedlings after N-acetylchitoheptaose; type: in vivo, Oryza sativa; conditions: 2 days on compound, [GlcNAc]7 10 μM, observed 24 hours after elicitor (FIG. 5)
tobacco leaves = experiment: Salicylic acid accumulation in tobacco leaves after cryptogein; type: in vivo; conditions: tobacco leaves treated with 2,000 nM cryptogein; range from several thousand, varying with conditions
Protocol: In the case of tobacco BY-2 cells compared to normal tobacco plant, the salicylic acid accumulation level of untreated tobacco BY-2 cells is from 10 to 20 ng/g (fresh weight), while the salicylic acid accumulation level of untreated tobacco leaves is several hundred ng/g (fresh weight). When treated with 2,000 nM cryptogein, the salicylic acid accumulation level of treated tobacco BY-2 cells increases to a level of approximately from 100 to 150 ng/g (fresh weight), while the salicylic acid accumulation level of treated tobacco leaves increases to, though varying depending on conditions, a level in the range of from several thousand ng/g (fresh weight) to 10,000 ng/g (fresh weight).

| Molecule | activation of salicylic acid-dependent and jasmonic acid-dependent defense pathways [1] | enhancement of immune response after treatment with cryptogein [3] | also measured |
| --- | --- | --- | --- |
| c1ccc2snnc2c1 [BTH, benzothiadiazole] | – | – | time to upregulation of OsWRKY45 after treatment (OsWRKY45): ≤ 3 h |
| Cn1cnc(=N)c2nc[nH]c21 [Compound 3, 3MA] | activated both the salicylic acid-dependent defense pathway and the jasmonic acid-dependent defense pathway | enhanced an immune response | resistance to a plant disease [2]: effective in enhancing resistance to a plant disease; enhancement of immune response after elicitor application (innate immunity in rice): enhanced an immune response |
| O=c1cc(N2CCNCC2)oc2c(-c3ccccc3)cccc12 [Compound 2, LY303511] | activated both the salicylic acid-dependent defense pathway and the jasmonic acid-dependent defense pathway | enhanced an immune response | – |
| B1 | – | – | salicylic acid accumulation level (tobacco leaves): ≤ 10,000 ng/g (fresh weight) |
